How the values were obtained:
Assay in all cases: microscale thermophoresis
[1] = system: Dm-CCS-5 (DNA, aptamer, HFNAP: side-chain on 5' nucleobase of each coding trinucleotide, positions 19,22,25,...,61 (codon key Figure 1B)) GAAAGCAGGACTGGAGATTTCTACTATCTCCAGCCGTTCCACCACTGATGCCCTTAGTATCCTCAGACCGAACTAGAGCTT; conditions: 5 mM KCl, 1 mM MgCl2, 1 mM CaCl2 added; HBS-P+ buffer, 25 °C
[2] = system: Dm-HS-8 ∆ s.c. (DNA, aptamer, none (no side-chains)) GAAAGCAGGACTGGAGATCGATTGCAGTTACGTCTCCCCTGCCCACCTTATTGCCATTCATAACAGACCGAACTAGAGCTT; conditions: 5 mM KCl, 1 mM MgCl2, 1 mM CaCl2 added; HBS-P+ buffer, 25 °C
[3] = system: Dm-CVAE-without-selection-2 (DNA, aptamer, HFNAP: side-chain on 5' nucleobase of each coding trinucleotide, positions 19,22,25,...,61 (codon key Figure 1B)) GAAAGCAGGACTGGAGATTCGTTACCGCTGTTGCTCTCTTCTCAGTTGTGCTCCTTTTCCCCCCAGACCGAACTAGAGCTT; conditions: 5 mM KCl, 1 mM MgCl2, 1 mM CaCl2 added; HBS-P+ buffer, 25 °C
[4] = system: Dm-HS-1 CCA ∆ s.c. (DNA, aptamer, as Dm-HS-1 but no side-chain at 43: fluorophenyl at 19; allylamine at 22,25,37; alcohol at 28,34,49; phenol at 31,46; cyclopentyl at 40; cyclopropyl at 58; imidazole at 52,55,61) GAAAGCAGGACTGGAGATCGATTCTGGTGCTGTTGATCTCCGCCATTGTGCTCCTACCCTTCACAGACCGAACTAGAGCTT; conditions: 5 mM KCl, 1 mM MgCl2, 1 mM CaCl2 added; HBS-P+ buffer, 25 °C
[5] = system: Dm-LS-1 (DNA, aptamer, HFNAP: side-chain on 5' nucleobase of each coding trinucleotide, positions 19,22,25,...,61 (codon key Figure 1B)) GAAAGCAGGACTGGAGATCCGCGCCGCTTTTATCCCTAGTCCCTTTTACCCTACTTCCCCTTACAGACCGAACTAGAGCTT; conditions: 5 mM KCl, 1 mM MgCl2, 1 mM CaCl2 added; HBS-P+ buffer, 25 °C
[6] = system: Dm-HS-3 (DNA, aptamer, HFNAP: side-chain on 5' nucleobase of each coding trinucleotide, positions 19,22,25,...,61 (codon key Figure 1B)) GAAAGCAGGACTGGAGATCGATTATTGTGATTTTGATCTCCTCCATATCCCCTTCCCTACTCGCAGACCGAACTAGAGCTT; conditions: 5 mM KCl, 1 mM MgCl2, 1 mM CaCl2 added; HBS-P+ buffer, 25 °C
[7] = system: Dm-HS-1 TGC ∆ s.c. (DNA, aptamer, no side-chain at 28 and 49 (codons 4 and 11 TGC, alcohol 2x); others as HFNAP: fluorophenyl at 19; allylamine at 22, 25, 37; alcohol at 34; phenol at 31, 46; cyclopentyl at 40; cyclopropyl at 43, 58; imidazole at 52, 55, 61) GAAAGCAGGACTGGAGATCGATTCTGGTGCTGTTGATCTCCGCCATTGTGCTCCTACCCTTCACAGACCGAACTAGAGCTT; conditions: 5 mM KCl, 1 mM MgCl2, 1 mM CaCl2 added to HBS-P+; HBS-P+ buffer, 25 °C
[8] = system: Dm-HS-10 (DNA, aptamer, HFNAP: side-chain on 5' nucleobase of each coding trinucleotide, positions 19,22,25,...,61 (codon key Figure 1B)) GAAAGCAGGACTGGAGATCCTTCGCATCGGCTTTCTCCCTGTCACCCCTGTTCCCCTTGACCGCAGACCGAACTAGAGCTT; conditions: 5 mM KCl, 1 mM MgCl2, 1 mM CaCl2 added; HBS-P+ buffer, 25 °C
[9] = system: Dm-HS-6 (DNA, aptamer, HFNAP: side-chain on 5' nucleobase of each coding trinucleotide, positions 19,22,25,...,61 (codon key Figure 1B)) GAAAGCAGGACTGGAGATTGGTAGTAACTGCTGTCCTGCTAATCATGCCGTTCACGCTGACCTCAGACCGAACTAGAGCTT; conditions: 5 mM KCl, 1 mM MgCl2, 1 mM CaCl2 added; HBS-P+ buffer, 25 °C
[10] = system: Dm-HS-7 ∆ s.c. (DNA, aptamer, none (no side-chains)) GAAAGCAGGACTGGAGATCGATTGCAGTTACGTTGCTAGTCCCCTTGATCACCTCCGTCACCTCAGACCGAACTAGAGCTT; conditions: 5 mM KCl, 1 mM MgCl2, 1 mM CaCl2 added; HBS-P+ buffer, 25 °C
[11] = system: Dm-HS-5 (DNA, aptamer, HFNAP: side-chain on 5' nucleobase of each coding trinucleotide, positions 19,22,25,...,61 (codon key Figure 1B)) GAAAGCAGGACTGGAGATCGATTCTGGTGCTGTTGATCTCCGCCATTGTGCTCCTGCCCTTCACAGACCGAACTAGAGCTT; conditions: 5 mM KCl, 1 mM MgCl2, 1 mM CaCl2 added; HBS-P+ buffer, 25 °C
[12] = system: Dm-HS-2 ∆ s.c. (DNA, aptamer, none (no side-chains)) GAAAGCAGGACTGGAGATCTATGGTCGCATCGTTGACCCTTGTCCTGCCCCTGTCTCTCTCAACAGACCGAACTAGAGCTT; conditions: 5 mM KCl, 1 mM MgCl2, 1 mM CaCl2 added; HBS-P+ buffer, 25 °C
[13] = system: Dm-reference-based-random-after-selection-4 (DNA, other, HFNAP: side-chain on 5' nucleobase of each coding trinucleotide, positions 19,22,25,...,61 (codon key Figure 1B)) GAAAGCAGGACTGGAGATCATCCTTCCTTATAGCATCGGCCGTTTCCGTTGCCATCCCCCCCACAGACCGAACTAGAGCTT; conditions: 5 mM KCl, 1 mM MgCl2, 1 mM CaCl2 added; HBS-P+ buffer, 25 °C
[14] = system: Dm-HS-1 TGT ∆ s.c. (DNA, aptamer, as Dm-HS-1 but no side-chain at 31: fluorophenyl at 19; allylamine at 22,25,37; alcohol at 28,34,49; phenol at 46; cyclopentyl at 40; cyclopropyl at 43,58; imidazole at 52,55,61) GAAAGCAGGACTGGAGATCGATTCTGGTGCTGTTGATCTCCGCCATTGTGCTCCTACCCTTCACAGACCGAACTAGAGCTT; conditions: 5 mM KCl, 1 mM MgCl2, 1 mM CaCl2 added; HBS-P+ buffer, 25 °C
[15] = system: Dm-HS-4 ∆ s.c. (DNA, aptamer, none (no side-chains)) GAAAGCAGGACTGGAGATCGATTCTGGTGCTGTTGATCTCCGCCATTGTGCTCCTACCCTTCGCAGACCGAACTAGAGCTT; conditions: 5 mM KCl, 1 mM MgCl2, 1 mM CaCl2 added; HBS-P+ buffer, 25 °C

COc1cccc2c1C(=O)c1c(O)c3c(c(O)c1C2=O)C[C@@](O)(C(C)=O)C[C@@H]3O[C@H]1C[C@H](N)[C@H](O)[C@H](C)O1
Kd [1]: 10.4 ± 1.5 nM | Kd ∆ side-chains [2]: 4840 ± 260 nM | Kd [3]: 15.5 ± 1.3 nM | Kd [4]: 158.8 ± 14.2 nM | Kd [5]: 1110 ± 60 nM | Kd [6]: 4.78 ± 0.95 nM | Kd [7]: 20.3 ± 4.4 nM | Kd [8]: 64.68 ± 3.9 nM | Kd [9]: 26.86 ± 4.2 nM | Kd ∆ side-chains [10]: 2490 ± 120 nM | Kd [11]: 6.16 ± 3.4 nM | Kd ∆ side-chains [12]: 1700 ± 170 nM | Kd [13]: 107900 ± 6900 nM | Kd [14]: 6.7 ± 1.0 nM | Kd ∆ side-chains [15]: 1810 ± 57 nM
